Measured values as given in ChEMBL document CHEMBL1201862, “PubChem BioAssay data set” (2004).
The source made the active and inactive calls.

Key:
[1] = molecular target: T1, E3 ubiquitin-protein ligase XIAP (Homo sapiens, UniProt P98170); experiment: XIAP antagonists, biochemical, IAP family, fluorescence polarization (AID 1018); format: functional
[2] = molecular target: T1, E3 ubiquitin-protein ligase XIAP; experiment: Counter Screen using XIAP-Bir3 for Chemical Antagonists of Bir1/2 domains of IAP-family anti-apoptotic proteins. [Related pubchem assays (depositor defined):AID1018, AID1449, AID1514, AID1638, AID1749, AID1750, AID488957, AID488963]
HEK293 [3] = experiment: optical interference in Abeta FP readout, dose response, artefact control for IDE activator project, biochemical, fluorescence polarization (AID 588442); format: functional, cell-based; details: Homo sapiens
INS1 = experiment: beta cell apoptosis inhibitors, cytokine rescue, dose response, luminescence, retest (AID 449756); format: functional, cell-based; details: Rattus norvegicus;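 note: cell death triggered by IL-1 beta plus TNF-alpha plus IFN-gamma mixture; protective hits raise ATP signal compared with cytokine alone wells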
Beta-galactosidase = Beta-galactosidase (Escherichia coli, UniProt Q8VNN2); format: functional
HEK293 [4] = experiment: HEK cell cytotoxicity by LDH release, dose response, cytotoxicity control for IDE activator project, fluorescence, HEK cells (AID 588440); format: functional, cell-based; details: Homo sapiens;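 note: cytotoxicity by LDH release measuring loss of membrane integrity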
[5] = test system: Streptococcus sp. 'group A'; experiment: growth inhibition of control SK(-) GAS strain, dose response, counter-screen for streptokinase expression inhibitor project, luminescence, kanamycin, BacTiterGlo, confirmation (AID 1900); format: functional, organism-based
[6] = molecular target: T2, Kappa-type opioid receptor (Homo sapiens, UniProt P41145); format: functional
Insulin-degrading enzyme [7] = molecular target: T3, Insulin-degrading enzyme (Homo sapiens, UniProt P14735); experiment: activators of endogenous IDE in HEK cells, dose response, cell-based, fluorescence polarization (AID 588439); format: functional
T3 sequence (P14735 whole entry): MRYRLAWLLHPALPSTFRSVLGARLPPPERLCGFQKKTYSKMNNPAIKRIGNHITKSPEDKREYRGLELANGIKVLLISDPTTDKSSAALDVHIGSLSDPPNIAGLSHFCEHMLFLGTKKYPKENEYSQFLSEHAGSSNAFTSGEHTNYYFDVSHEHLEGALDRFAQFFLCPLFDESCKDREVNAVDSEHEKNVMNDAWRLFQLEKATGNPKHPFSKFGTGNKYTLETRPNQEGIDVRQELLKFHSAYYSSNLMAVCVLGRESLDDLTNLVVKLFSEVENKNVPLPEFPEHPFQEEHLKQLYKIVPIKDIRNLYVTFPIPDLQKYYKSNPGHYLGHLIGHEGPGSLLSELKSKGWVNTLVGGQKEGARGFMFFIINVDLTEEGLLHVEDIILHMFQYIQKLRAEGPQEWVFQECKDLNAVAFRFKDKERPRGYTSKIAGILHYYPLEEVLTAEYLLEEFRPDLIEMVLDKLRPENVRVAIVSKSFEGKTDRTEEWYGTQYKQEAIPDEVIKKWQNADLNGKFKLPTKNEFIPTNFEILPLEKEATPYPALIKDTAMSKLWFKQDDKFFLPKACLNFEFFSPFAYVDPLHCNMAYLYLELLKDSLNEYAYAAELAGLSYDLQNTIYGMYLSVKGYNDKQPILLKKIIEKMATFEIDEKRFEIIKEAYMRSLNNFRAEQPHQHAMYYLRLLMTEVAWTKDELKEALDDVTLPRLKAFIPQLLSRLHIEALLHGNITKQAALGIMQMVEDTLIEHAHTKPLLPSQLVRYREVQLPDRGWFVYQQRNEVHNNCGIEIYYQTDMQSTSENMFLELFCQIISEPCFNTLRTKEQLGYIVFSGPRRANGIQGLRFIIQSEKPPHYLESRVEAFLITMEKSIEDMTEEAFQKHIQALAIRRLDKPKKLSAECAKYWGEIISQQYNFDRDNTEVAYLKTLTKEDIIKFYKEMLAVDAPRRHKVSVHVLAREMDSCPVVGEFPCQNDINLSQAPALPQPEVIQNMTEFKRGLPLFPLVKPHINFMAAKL

Streptococcus = experiment: Group A Streptococcus viability loss, dose response, counter-screen for streptokinase expression inhibitor project, luminescence, BacTiterGlo (AID 1915); format: functional, organism-based;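 note: potency for reduction of bacterial viability or growth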
[8] = molecular target: T2, Kappa-type opioid receptor; format: functional; remark: listed apart in the source
Insulin-degrading enzyme [9] = molecular target: T3, Insulin-degrading enzyme; experiment: activators of recombinant IDE enzyme, dose response, counter-screen for IDE activator project, biochemical, fluorescence polarization (AID 588681)
Streptokinase A = molecular target: T4, Streptokinase A (Streptococcus pyogenes serotype M1, UniProt P10520); experiment: S. pyogenes streptokinase expression inhibitors, potency, dose response, plasminogen activation absorbance, OD405 (AID 1914); format: functional, Streptococcus pyogenes M1 GAS;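 note: secreted streptokinase activity via plasminogen activation per viability signal from cell pellet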
T4 sequence (P10520 whole entry): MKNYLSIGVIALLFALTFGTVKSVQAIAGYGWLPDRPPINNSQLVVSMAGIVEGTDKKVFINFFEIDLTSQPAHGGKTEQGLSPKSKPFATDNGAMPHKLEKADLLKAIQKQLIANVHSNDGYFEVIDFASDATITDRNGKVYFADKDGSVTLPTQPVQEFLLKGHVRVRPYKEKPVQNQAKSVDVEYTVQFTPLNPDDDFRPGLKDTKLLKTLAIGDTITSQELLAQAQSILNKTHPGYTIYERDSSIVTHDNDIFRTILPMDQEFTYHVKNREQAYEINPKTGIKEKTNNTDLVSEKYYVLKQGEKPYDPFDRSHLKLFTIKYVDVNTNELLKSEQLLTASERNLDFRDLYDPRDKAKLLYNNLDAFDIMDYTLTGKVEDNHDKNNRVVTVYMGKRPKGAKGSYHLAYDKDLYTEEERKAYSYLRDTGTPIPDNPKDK

Troponin, cardiac muscle = Troponin, cardiac muscle (Homo sapiens, UniProt P19429+P45379+P63316); experiment: Fluorescence-based biochemical high throughput dose response assay for activators of the calcium sensitivity of cardiac Regulated Thin Filaments (RTF). [Related pubchem assays (depositor defined):AID493008, AID493018, AID504382, AID504383]; format: protein-complex assay

T2 sequence (P41145 whole entry): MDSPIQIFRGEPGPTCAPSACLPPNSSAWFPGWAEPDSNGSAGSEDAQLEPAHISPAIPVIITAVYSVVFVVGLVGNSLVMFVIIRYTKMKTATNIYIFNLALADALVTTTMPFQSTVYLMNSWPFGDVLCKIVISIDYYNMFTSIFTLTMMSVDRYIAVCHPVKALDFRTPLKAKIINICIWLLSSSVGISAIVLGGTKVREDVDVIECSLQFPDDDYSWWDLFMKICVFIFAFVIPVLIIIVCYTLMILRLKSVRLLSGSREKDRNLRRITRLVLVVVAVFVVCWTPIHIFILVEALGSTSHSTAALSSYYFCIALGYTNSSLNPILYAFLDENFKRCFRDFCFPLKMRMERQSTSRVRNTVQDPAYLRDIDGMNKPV
T1 sequence (P98170 whole entry): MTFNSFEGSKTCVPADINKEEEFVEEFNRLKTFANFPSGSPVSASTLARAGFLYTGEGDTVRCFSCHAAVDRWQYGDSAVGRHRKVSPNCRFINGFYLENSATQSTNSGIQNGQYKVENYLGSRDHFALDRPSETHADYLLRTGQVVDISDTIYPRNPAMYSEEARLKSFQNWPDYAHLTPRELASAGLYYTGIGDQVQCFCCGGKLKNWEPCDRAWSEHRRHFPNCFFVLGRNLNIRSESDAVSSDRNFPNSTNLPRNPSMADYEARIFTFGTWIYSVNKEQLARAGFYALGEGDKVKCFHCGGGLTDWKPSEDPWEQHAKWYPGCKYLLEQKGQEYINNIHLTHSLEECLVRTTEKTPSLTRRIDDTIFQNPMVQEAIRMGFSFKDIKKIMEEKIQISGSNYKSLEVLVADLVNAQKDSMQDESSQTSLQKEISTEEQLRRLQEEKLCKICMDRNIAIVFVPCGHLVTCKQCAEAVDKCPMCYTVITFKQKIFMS
Sequence of Beta-galactosidase (Q8VNN2 whole entry): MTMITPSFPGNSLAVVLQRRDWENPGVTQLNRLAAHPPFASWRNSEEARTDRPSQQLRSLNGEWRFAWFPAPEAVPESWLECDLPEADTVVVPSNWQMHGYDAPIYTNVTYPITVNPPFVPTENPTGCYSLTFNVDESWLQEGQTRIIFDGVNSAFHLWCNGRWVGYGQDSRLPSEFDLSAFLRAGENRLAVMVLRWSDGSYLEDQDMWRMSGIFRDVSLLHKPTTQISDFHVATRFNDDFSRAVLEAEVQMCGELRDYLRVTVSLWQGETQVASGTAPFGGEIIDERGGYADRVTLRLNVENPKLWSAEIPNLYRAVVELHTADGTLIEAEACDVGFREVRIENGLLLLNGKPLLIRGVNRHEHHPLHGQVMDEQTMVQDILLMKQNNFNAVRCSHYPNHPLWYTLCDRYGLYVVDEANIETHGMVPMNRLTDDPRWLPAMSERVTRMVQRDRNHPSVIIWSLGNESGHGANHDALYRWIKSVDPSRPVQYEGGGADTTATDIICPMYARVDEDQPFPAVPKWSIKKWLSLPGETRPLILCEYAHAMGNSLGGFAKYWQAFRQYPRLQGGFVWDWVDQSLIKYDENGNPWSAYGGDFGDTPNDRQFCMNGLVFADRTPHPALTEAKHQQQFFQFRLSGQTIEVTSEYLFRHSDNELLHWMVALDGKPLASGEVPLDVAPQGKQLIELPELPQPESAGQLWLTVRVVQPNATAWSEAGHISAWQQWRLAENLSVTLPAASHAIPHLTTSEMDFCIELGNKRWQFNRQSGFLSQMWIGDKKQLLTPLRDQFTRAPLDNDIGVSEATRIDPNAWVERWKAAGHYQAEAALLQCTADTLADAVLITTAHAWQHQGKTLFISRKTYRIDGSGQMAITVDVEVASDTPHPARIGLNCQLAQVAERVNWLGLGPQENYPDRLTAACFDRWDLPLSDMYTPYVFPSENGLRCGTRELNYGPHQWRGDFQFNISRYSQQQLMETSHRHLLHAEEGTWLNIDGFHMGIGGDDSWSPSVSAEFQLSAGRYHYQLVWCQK

Cc1ccc(S(=O)(=O)c2cn(CC(=O)Nc3ccccc3)c3ccc(F)cc3c2=O)cc1
IC50 [1]: > 100 µM (not active) | IC50 [2]: > 100 µM (inactive)

CCOc1cc(/C=N/Nc2cc(C)nc(-n3nc(C)cc3C)n2)ccc1O
EC50 (HEK293 [3]): > 54.7 µM (inactive) | AC50 (INS1): 0.862 µM (active) | EC50 (Beta-galactosidase): > 31.5 µM (inactive) | IC50 (HEK293 [4]): 32.3 µM (inactive) | EC50 [5]: 1.67 µM (active) | IC50 [6]: > 31.5 µM (inactive) | EC50 (Insulin-degrading enzyme [7]): > 54.7 µM (inactive) | EC50 (Streptococcus): 32.7 µM (active) | IC50 [8]: > 32 µM | EC50 (Insulin-degrading enzyme [9]): > 54.7 µM (inactive) | EC50 (Streptokinase A): > 150 µM (not active)

O=C(O)c1ncc(-c2ccccc2)cn1
EC50 (Troponin, cardiac muscle): > 71.5 µM (inactive)

O=C(Nc1ccccc1-c1ccccc1)c1ccc(Cl)c([N+](=O)[O-])c1
EC50 (Troponin, cardiac muscle): > 71.5 µM (inactive)
